Assay results published in patent US4923865A, “Substituted 1-(1H-imidazol-4-yl)alkyl-benzamides as anti-ischemics and as alpha-2-adrenergic receptor agonists” (U C B Societe Anonyme, priority 1988, dated 1990).

Experiments:
[1] = test system: cerebral ischemia; assay: General and permanent cerebral ischemia in rat (ligature of the two common carotid arteries); type: in vivo, male Wistar rats; conditions: 0.76 μg/kg (3.2 nmoles) i.p.; maximum score 17; control 12; P 0.005
Method: (a) General and permanent cerebral ischemia in rat. Male Wistar rats (200 to 250 g) are anesthetized by inhalation of halothane (1 to 5%) contained in a N2 O--O2 (70:30) mixture. The two common carotid arteries are ligatured simultaneously close to the passage between the internal carotid and external carotid using the method described by M. LE PONCIN-LAFITTE et al., J. Pharmacol. (Paris), 14, (1983), 99-102.
The compound to be tested is administered intraperitoneally for a first time 30 minutes before making the ligatures, and subsequently 30 minutes and 270 minutes after making the ligatures. On the next day, and on the day after the next, the neurological deficit in the surviving animals is evaluated by the method described by C. CAPDEVILLE et al., J. Pharmacol. (Paris), 15, (1984), 231-237, and by B. KOLB et al., Neurobehav. Toxicol. Teratol. 7, (1985), 71-78. […] Table III gives for compound A, administered intraperitoneally at a dose of 0.76 μg/kg (3.2 nmoles), the mean of the neurological scores determined for the whole group of surviving animals of the control group and of the treated group, as recorded two days after the ligatures. The statistical significance (P) of the difference observed between these mean values is evaluated by the Mann-Whitney test.

[2] = test system: myocardial ischemia; assay: Artificially induced acute coronary insufficiency in an awake dog (ST-segment elevation); type: in vivo; conditions: Canis lupus familiaris, 0.1 h, intravenous, 6 min coronary occlusion, groups of ten animals, read-out: DE20 (dose producing a mean reduction of at least 20% of the ST-segment elevation)
Text: Because of the reduction in the oxygen supply which results from this, the occlusion produces myocardial ischemia which is expressed on the electrocardiogram by a reproducible and quantifiable ST-segment elevation. The anti-ischemic action of a compound results in a reduction of the magnitude of the ST-segment elevation. (P. R. MAROKO and E. BRAUNWALD, Circulation, 53, (1976, Suppl. I), 162-168; S. E. EPSTEIN et al., Circulation, 53, (1976, Suppl. I), 191-197).

[3] = test system: stenosis at the level of a coronary artery; assay: Effort trial on a moving belt in dogs with coronary artery stenosis; type: in vivo, dog; conditions: dose 0.018 μmole/kg i.v.; maximum effort at 12 Km/h for 1 minute
Method: (b) Effort trial on a moving belt. In this test, a group of at least four dogs is used (equipped with intracardiac electrodes), the dogs having an organic stenosis at the level of a coronary artery. This stenosis causes imbalance between the demand and supply of oxygen when the animal is required to make an effort. This imbalance is expressed on the electrocardiogram by an increase in the ST-segment.
In the trial, the dog runs at a speed of 12 km/h on a moving belt having a slope of 15°. This maximum effort is required for one minute. During the trial, the increase in the ST-segment is recorded, together with the natural increase in the pulse rate. The experiment is repeated at least four times, and the mean of the values obtained is taken as reference (100%) for the group of animals. The animals are then allowed to rest for a minimum of 24 hours before being subjected to a new effort trial under the influence of the compound to be studied.
The compound to be studied is administered slowly (over 1 minute) by intravenous injection 5 minutes before the new effort trial. In the course of the latter, the variations in the same parameters are recorded.

Cl.NC(=O)c1cccc(Cc2c[nH]cn2)c1O [A, 2-hydroxyl-3-[(1H-imidazol-4-yl)methyl]-benzamide hydrochloride]
Neurological scores after 2 days [1]: 15 | ED20 [2]: 0.03 µmol/kg | reduction in ST-segment [3]: 74% | reduction in the pulse rate [3]: 3 beats/min.
